Experimental data published in patent US20240279214A1, “ALPHA4 BETA7 INEGRIN ANTAGONISTS AND USES THEREOF” (XinThera, Inc., priority 2022, published 2024).
Like-named read-outs stand apart in the source and are kept apart here.

Columns and labels:
[1] = ether bond, 13-membered ring, 100.0 °C
[2] = 13-membered ring

Molecule `CCOC(=O)C[C@@H]1NC(=O)C(n2cc(CCN3CC(F)C3)c(C(F)(F)F)cc2=O)c2cccc(c2)Oc2cc(C3CC3)cc(C)c2-c2cc1c(F)c(C(F)(F)F)c2` (stereo partly drawn) has a ring closure, yield after HPLC ([1]; from CCOC(=O)C[C@H](NC(=O)C(c1cccc(Br)c1)n1cc(CCN2CC(F)C2)c(C(F)(F)F)cc1=O)c1cc(-c2c(C)cc(C3CC3)cc2O)cc(C(F)(F)F)c1F, CuI/(1R,2R)-N1,N2-dimethylcyclohexane-1,2-diamine/K2CO3, dioxane, 40.0 mM, 16.0 h) of 31.4%.

For `CCOC(=O)C[C@@H]1NC(=O)C(n2ccc3occc3c2=O)c2cc(ccc2F)Oc2cccc(C)c2-c2cc(C)c(F)c1c2` (stereo partly drawn), the ring closure, yield after HPLC ([1]; from CCOC(=O)C[C@H](NC(=O)C(c1cc(Br)ccc1F)n1ccc2occc2c1=O)c1cc(-c2c(C)cccc2O)cc(C)c1F, CuI/(1S,2S)-N,N'-dimethylcyclohexane-1,2-diamine/K2CO3, dioxane, 30.0 mM, 4.0 h) was 36.3%.

Work on `CCOC(=O)C[C@@H]1NC(=O)C(n2ccc3ccoc3c2=O)c2cc(ccc2F)Oc2cccc(C)c2-c2cc(C)c(F)c1c2` (stereo in doubt) yielded a ring closure, yield after HPLC ([1]; from CCOC(=O)C[C@H](NC(=O)C(c1cc(Br)ccc1F)n1ccc2ccoc2c1=O)c1cc(-c2c(C)cccc2O)cc(C)c1F, CuI/(1R,2R)-N,N'-dimethylcyclohexane-1,2-diamine/K2CO3, 1,4-dioxane, 37.5 mM, 4.0 h) of 50.9%.

Work on `CCOC(=O)C[C@@H]1NC(=O)C(n2cc(CCN3CC(F)C3)c(C(F)(F)F)cc2=O)c2cccc(c2)Oc2cc(Cl)cc(C)c2-c2cc1c(F)c(C(F)(F)F)c2` (stereo partly drawn) yielded a ring closure, yield after HPLC ([1]; from CCOC(=O)C[C@H](NC(=O)C(c1cccc(Br)c1)n1cc(CCN2CC(F)C2)c(C(F)(F)F)cc1=O)c1cc(-c2c(C)cc(Cl)cc2O)cc(C(F)(F)F)c1F, CuI/(1R,2R)-N1,N2-dimethylcyclohexane-1,2-diamine/K2CO3, dioxane, 34.0 mM, 4.0 h) of 33%.

Work on `CCOC(=O)C[C@@H]1NC(=O)C(n2cccc(-c3ccccc3)c2=O)c2cc(ccc2F)Oc2cccc(C)c2-c2cc(C)c(F)c1c2` (stereo partly drawn) yielded a ring closure, yield after HPLC ([1]; from CCOC(=O)C[C@H](NC(=O)C(c1cc(Br)ccc1F)n1cccc(-c2ccccc2)c1=O)c1cc(-c2c(C)cccc2O)cc(C)c1F, CuI/(1R,2R)-N,N'-dimethylcyclohexane-1,2-diamine/K2CO3, dioxane, 70.0 mM, 2.0 h) of 48.2%.

Work on `CCOC(=O)C[C@@H]1NC(=O)C(n2cc(CCN3CC(F)C3)c(C(F)(F)F)cc2=O)c2cccc(c2)Oc2cc(C(F)(F)F)cc(C)c2-c2cc1c(F)c(C(F)(F)F)c2` (stereo partly drawn) yielded a ring closure, isolated yield ([2]; from CCOC(=O)C[C@H](NC(=O)C(c1cccc(Br)c1)n1cc(CCN2CC(F)C2)c(C(F)(F)F)cc1=O)c1cc(-c2c(C)cc(C(F)(F)F)cc2O)cc(C(F)(F)F)c1F, ether bond, CuI/(1R,2R)-N1,N2-dimethylcyclohexane-1,2-diamine/K2CO3, dioxane, 22.0 mM, 100.0 °C, 16.0 h) of 38.4%.

Work on `CCOC(=O)C[C@@H]1NC(=O)C(n2cc(CCN3CC(F)C3)c(C(F)(F)F)cc2=O)c2cc(ccc2F)Oc2cccc(C)c2-c2cc(F)c(F)c1c2` (stereo in doubt) yielded a ring closure, isolated yield ([2]; from CCOC(=O)C[C@H](NC(=O)C(c1cc(Br)ccc1F)n1cc(CCN2CC(F)C2)c(C(F)(F)F)cc1=O)c1cc(-c2c(C)cccc2O)cc(F)c1F, ether bond, CuI/K2CO3/N1,N2-dimethylcyclohexane-1,2-diamine, 1,4-dioxane, 51.7 mM, 100.0 °C, 16.0 h) of 44.4%.

`CCOC(=O)C[C@@H]1NC(=O)C(n2cc(CCN3CC(F)C3)c(C(F)(F)F)cc2=O)c2cc(ccc2Cl)Oc2cccc(C)c2-c2cc(C)c(F)c1c2` (stereo in doubt) showed a ring closure, isolated yield ([2]; from CCOC(=O)C[C@H](NC(=O)C(c1cc(Br)ccc1Cl)n1cc(CCN2CC(F)C2)c(C(F)(F)F)cc1=O)c1cc(-c2c(C)cccc2O)cc(C)c1F, ether bond, CuI/K2CO3/(1R,2R)-N1,N2-dimethylcyclohexane-1,2-diamine, 1,4-dioxane, 26.7 mM, 100.0 °C, 16.0 h) of 50.3%.

`COC(=O)C[C@@H]1NC(=O)C(n2ccc(C(F)(F)F)cc2=O)c2cc(ccc2F)Oc2cccc(C)c2-n2cc1c(C(F)(F)F)n2` (stereo partly drawn) gave a ring closure, isolated yield ([2]; from COC(=O)C[C@H](NC(=O)C(c1cc(Br)ccc1F)n1ccc(C(F)(F)F)cc1=O)c1cn(-c2c(C)cccc2O)nc1C(F)(F)F, ether bond, CuI/(1R,2R)-N,N'-dimethylcyclohexane-1,2-diamine/K2CO3, 1,4-dioxane, 65.0 mM, 100.0 °C, 2.0 h) of 22.5%.

`CCOC(=O)C[C@H](NC(=O)C(c1cc(Cl)cc(Br)c1)n1cc(CCN2CC(F)C2)c(C(F)(F)F)cc1=O)c1cc(-c2c(C)cccc2O)cc(C)c1F` (stereo partly drawn) gave a ring closure, isolated yield ([2]; the molecule shown is the open-chain precursor, ether bond, CuI/(1R,2R)-N1,N2-dimethylcyclohexane-1,2-diamine/K2CO3, dioxane, 15.0 mM, 100.0 °C) of 66.5%.

`CCOC(=O)C[C@@H]1NC(=O)C(n2cc(CCN3CC(F)C3)c(C(F)(F)F)cc2=O)c2cc(ccc2F)Oc2cc(C(F)(F)F)cc(C)c2-c2cc(C)c(F)c1c2` (stereo partly drawn) showed a ring closure, isolated yield ([2]; from CCOC(=O)C[C@H](NC(=O)C(c1cc(Br)ccc1F)n1cc(CCN2CC(F)C2)c(C(F)(F)F)cc1=O)c1cc(-c2c(C)cc(C(F)(F)F)cc2O)cc(C)c1F, ether bond, CuI/K2CO3/(1R,2R)-N1,N2-dimethylcyclohexane-1,2-diamine, 1,4-dioxane, 30.0 mM, 100.0 °C, 16.0 h) of 55%.

`CCOC(=O)C[C@@H]1NC(=O)C(n2ccc(C(F)(F)F)c(C3CC3)c2=O)c2cc(ccc2F)Oc2cccc(C)c2-c2cc(C)c(F)c1c2` (stereo in doubt) showed a ring closure, isolated yield ([2]; from CCOC(=O)C[C@H](NC(=O)C(c1cc(Br)ccc1F)n1ccc(C(F)(F)F)c(C2CC2)c1=O)c1cc(-c2c(C)cccc2O)cc(C)c1F, ether bond, CuI/K2CO3/(1R,2R)-N1,N2-dimethylcyclohexane-1,2-diamine, dioxane, 45.0 mM, 100.0 °C) of 46.7%.

Work on `CCOC(=O)C[C@@H]1NC(=O)C(n2cc(CCN3CC(F)C3)c(C(F)(F)F)cc2=O)c2cccc(c2)Oc2cccc(C)c2-c2cc(C3CC3)c(F)c1c2` (stereo partly drawn) yielded a ring closure, isolated yield ([2]; from CCOC(=O)C[C@H](NC(=O)C(c1cccc(Br)c1)n1cc(CCN2CC(F)C2)c(C(F)(F)F)cc1=O)c1cc(-c2c(C)cccc2O)cc(C2CC2)c1F, ether bond, CuI/(1R,2R)-N1,N2-dimethylcyclohexane-1,2-diamine/K2CO3, dioxane, 26.1 mM, 100.0 °C, 16.0 h) of 82.3%.

With `CCOC(=O)C[C@@H]1NC(=O)C(n2cc(CCN3CC(F)C3)c(C(F)(F)F)cc2=O)c2cc(ccc2F)Oc2cccc(C)c2-c2cc(C3CC3)c(F)c1c2` (stereo in doubt) the ring closure, isolated yield ([2]; from CCOC(=O)C[C@H](NC(=O)C(c1cc(Br)ccc1F)n1cc(CCN2CC(F)C2)c(C(F)(F)F)cc1=O)c1cc(-c2c(C)cccc2O)cc(C2CC2)c1F, ether bond, CuI/K2CO3/(1R,2R)-N1,N2-dimethylcyclohexane-1,2-diamine, dioxane, 25.0 mM, 100.0 °C, 16.0 h) was 67.3%.

`CCOC(=O)C[C@@H]1NC(=O)C(n2cc(CCN(C)C)c(C(F)(F)F)cc2=O)c2cc(ccc2F)Oc2cccc(C)c2-c2cc(C)c(F)c1c2` (stereo in doubt) showed a ring closure, isolated yield ([2]; from CCOC(=O)C[C@H](NC(=O)C(c1cc(Br)ccc1F)n1cc(CCN(C)C)c(C(F)(F)F)cc1=O)c1cc(-c2c(C)cccc2O)cc(C)c1F, ether bond, CuI/K2CO3/(1R,2R)-N1,N2-dimethylcyclohexane-1,2-diamine, 1,4-dioxane, 56.0 mM, 100.0 °C, 16.0 h) of 70%.

With `CCOC(=O)C[C@@H]1NC(=O)C(=O)c2cccc(c2)Cc2cccc(C)c2-c2cc(C)c(F)c1c2` the ring closure, isolated yield ([2]; from CCOC(=O)C[C@H](N)c1cc(-c2c(C)cccc2Cc2cccc(C(=O)C(=O)O)c2)cc(C)c1F, amide bond, TCFH/NMI, MeCN, 139.3 mM, 25.0 °C, 3.0 h) was 32.5%.

Molecule `CCOC(=O)C[C@@H]1NC(=O)C(n2cc(CCN(C)C)c(C(F)(F)F)cc2=O)c2cccc(c2)Oc2cccc(C)c2-c2cc1c(F)c(C(F)(F)F)c2` (stereo in doubt) has a ring closure, isolated yield ([2]; from CCOC(=O)C[C@H](NC(=O)C(c1cccc(Br)c1)n1cc(CCN(C)C)c(C(F)(F)F)cc1=O)c1cc(-c2c(C)cccc2O)cc(C(F)(F)F)c1F, ether bond, CuI/(1R,2R)-N1,N2-dimethylcyclohexane-1,2-diamine/K2CO3, dioxane, 68.3 mM, 100.0 °C, 16.0 h) of 55.5%.

Work on `CCOC(=O)C[C@@H]1NC(=O)C(n2cc(CCN3CC(F)C3)c(C(F)(F)F)cc2=O)c2cc(cc(C(F)(F)F)c2)Oc2cccc(C)c2-c2cc1c(F)c(C(F)(F)F)c2` (stereo partly drawn) yielded a ring closure, isolated yield ([2]; from CCOC(=O)C[C@H](NC(=O)C(c1cc(Br)cc(C(F)(F)F)c1)n1cc(CCN2CC(F)C2)c(C(F)(F)F)cc1=O)c1cc(-c2c(C)cccc2O)cc(C(F)(F)F)c1F, ether bond, CuI/(1R,2R)-N1,N2-dimethylcyclohexane-1,2-diamine/K2CO3, dioxane, 15.0 mM, 100.0 °C, 2.0 h) of 64.3%.
